From ChEMBL document CHEMBL3045099, “Action mechanism of isoxazoline-type herbicides” (J Pestic Sci, 2012) come the findings set out here.

The subject of experiment [1] is Echinochloa crus-galli. Nature of the experiment: Ratio of I50 for very long-chain fatty acid elongase in Echinochloa crus-galli (barnyard grass) to EC50 for shoot elongation inhibition in Echinochloa crus-galli (barnyard grass).
Experiment [2] in a line: Inhibition of Very long-chain fatty acid elongase in Echinochloa crus-galli (barnyard grass). Conditions: read-out: I50.
Experiment [3] has as its system Echinochloa crus-galli. The experiment in a line: Inhibition of shoot elongation in Echinochloa crus-galli (barnyard grass). It counts as functional, organism-based.

A word on the EC50: it is the midpoint of the concentration-response curve. For the compound `CCOc1cc(Cl)c(CS(=O)(=O)C2=NOC(C)(C)C2)cc1Cl` [FENOXASULFONE], in the experiment on Echinochloa crus-galli [1], the Ratio amounted to 10. The IC50 in experiment [2] came to 300 nM. In the experiment on Echinochloa crus-galli [3], this compound returned an EC50 of 30 nM.
Take `Cn1nc(C(F)(F)F)c(CS(=O)(=O)C2=NOC(C)(C)C2)c1OC(F)F` [PYROXASULFONE]: the Ratio in the experiment with Echinochloa crus-galli [1] was 10. Moreover, in experiment [2], the IC50 turned out to be 300 nM. Besides, the EC50 in the experiment with Echinochloa crus-galli [3] was determined as 30 nM.
